Earlier results as cited in patent US6703001B1, “Cosmetic and dermatological light-protective formulations containing triazine derivatives one or several esters of branched-chain carboxylic acids and branched-chain alcohols” (Beiersdorf AG, priority 1998, dated 2004).

- corresponding dissolved, and therefore active, UV filter substance (corresponds to the about 15% by weight solubility in known solvents): 1-1.5 % by weight
- maximum amount of the filter that known solvents can dissolve (known solvents for this UVB filter (lipids)): about 15 % by weight
- solubility in lipids (in words) (lipids): poor solubility in lipids
Compound: CCCCC(CC)COC(=O)c1ccc(Nc2nc(Nc3ccc(C(=O)OCC(CC)CCCC)cc3)nc(Nc3ccc(C(=O)OCC(CC)CCCC)cc3)n2)cc1 (stereo not drawn) [UVINUL7 T 150, tris(2-ethylhexyl) 4,4′,4″-(1,3,5-triazine-2,4,6-triyltriimino)trisbenzoate]
